This assay relates to IL-17A expression. Briefly: IL-17A inhibition assay in IL-17 luciferase-(LUCPorter) stable reporter cell line. The settings on record: for Inhibition of IL-17A expression (%) Experiment-1 / Inhibition of IL-17A expression (%) Experiment-2 / Inhibition of IL-17A expression (%) Experiment-3: 6 hours; for expression of IL-17A (luciferase units): control group 2,582 units; for inhibition at 10 µg/mL / inhibition at 100 µg/mL / inhibition at 1000 µg/mL / IC50: Homo sapiens; for inhibition at 10 µg/mL / inhibition at 100 µg/mL / inhibition at 1000 µg/mL: read-out: Average Inhibition (%); for IC50: read-out: IC50 to inhibit the IL-17A expression by 50%.

≈ marks a conversion by molar mass, not a printed value.

With `CO[C@]1(C)CC[C@@]23C[C@@H]1C(C)(C)[C@@H]2CC[C@H]3C` [methyl cedryl ether, Methyl cedryl ether], the inhibition (usually how much of the control response was suppressed) at 10 µg/mL worked out at 0.7%; the inhibition at 100 µg/mL is 2.7%; the inhibition at 1000 µg/mL amounted to 30.7%; the IC50 – broadly, the midpoint of a concentration-inhibition curve – is 1130 µg/mL (≈ 4.78 mM). Further, under “10 μg/ml”, the “expression of IL-17A, % by the control” value amounted to 96 % by the control; the “Inhibition of IL-17A expression (%) Experiment-1” value (“Inhibition … (%) Experiment-1” below) is recorded as −6%; the “Inhibition of IL-17A expression (%) Experiment-2” value (shortened to “Inhibition … (%) Experiment-2”) is recorded as 4%; the “Inhibition of IL-17A expression (%) Experiment-3” value (“Inhibition … (%) Experiment-3” for short) was determined as 4%. In addition, the “expression of IL-17A (luciferase units)” value (10 μg/ml) is listed as 2,479±136 units. Also, under “100 μg/ml”, the “expression of IL-17A, % by the control” value came out at 92 % by the control; the “Inhibition … (%) Experiment-1” value is given as −5%; the “Inhibition … (%) Experiment-2” value came out at 5%; the “Inhibition … (%) Experiment-3” value was found to be 8%. In addition, for the setting “100 μg/ml”, the “expression of IL-17A (luciferase units)” value is reported as 2,379±206 units. For the same molecule, under “1,000 μg/ml”, the “expression of IL-17A, % by the control” value worked out at 74 % by the control and the “expression of IL-17A (luciferase units)” value is listed as 1,921±239 units. For the setting “1000 μg/ml”, the “Inhibition … (%) Experiment-1” value was 48%, the “Inhibition … (%) Experiment-2” value turned out to be 18% and the “Inhibition … (%) Experiment-3” value stood at 26%.
Turning to `C[C@@H]1CC[C@H]2C(C)(C)[C@H]3C[C@@]12CC1OC13C` (stereo partly drawn) [cedrene epoxide, Cedrene epoxide], the inhibition at 10 µg/mL stood at 5%, the inhibition at 100 µg/mL was determined as 14%, the inhibition at 1000 µg/mL was determined as 54% and the IC50 was 942 µg/mL (≈ 4.27 mM). Moreover, where the note is “10 μg/ml”, the “expression of IL-17A, % by the control” value stood at 100 % by the control; the “Inhibition … (%) Experiment-1” value is listed as 11%; the “Inhibition … (%) Experiment-2” value came out at 4%; the “Inhibition … (%) Experiment-3” value is 0%. Also, under “10 μg/ml”, the “expression of IL-17A (luciferase units)” value is 2,591±458 units. Under “100 μg/ml”, the “expression of IL-17A, % by the control” value turned out to be 88 % by the control; the “Inhibition … (%) Experiment-1” value was found to be 14%; the “Inhibition … (%) Experiment-2” value is 16%; the “Inhibition … (%) Experiment-3” value turned out to be 12%. The “expression of IL-17A (luciferase units)” value (100 μg/ml) is on record as 2,267±806 units. In addition, for the setting “1,000 μg/ml”, the “expression of IL-17A, % by the control” value came out at 54 % by the control and the “expression of IL-17A (luciferase units)” value is 1,382±87 units. Where the note is “1000 μg/ml”, the “Inhibition … (%) Experiment-1” value is 60%, the “Inhibition … (%) Experiment-2” value was 56% and the “Inhibition … (%) Experiment-3” value is 46%.
For the molecule `CC(=O)C1=C(C)[C@@H]2C[C@@]3(C1)[C@H](C)CC[C@H]3C2(C)C` [methyl cedryl ketone, Methyl cedryl ketone], the inhibition at 10 µg/mL amounted to 4.7%, the inhibition at 100 µg/mL came out at 17.3%, the inhibition at 1000 µg/mL stood at 67.3% and the IC50 was 841 µg/mL (≈ 3.41 mM). Besides, under “10 μg/ml”, the “expression of IL-17A, % by the control” value came out at 87 % by the control; the “Inhibition … (%) Experiment-1” value was 0%; the “Inhibition … (%) Experiment-2” value was determined as 1%; the “Inhibition … (%) Experiment-3” value came to 13%. Besides, the “expression of IL-17A (luciferase units)” value (10 μg/ml) is recorded as 2,248±194 units. In addition, where the note is “100 μg/ml”, the “expression of IL-17A, % by the control” value is on record as 75 % by the control; the “Inhibition … (%) Experiment-1” value is 12%; the “Inhibition … (%) Experiment-2” value was 15%; the “Inhibition … (%) Experiment-3” value worked out at 25%. Besides, the “expression of IL-17A (luciferase units)” value (100 μg/ml) is reported as 1,930±111 units. In addition, for the setting “1,000 μg/ml”, the “expression of IL-17A, % by the control” value stood at 34 % by the control and the “expression of IL-17A (luciferase units)” value is 866±106 units. For the setting “1000 μg/ml”, the “Inhibition … (%) Experiment-1” value came out at 78%, the “Inhibition … (%) Experiment-2” value was found to be 58% and the “Inhibition … (%) Experiment-3” value was 66%.

The values are drawn from patent US10307383B2, “Cosmetic composition for preventing or ameliorating hypersensitive skin comprising cedrol or derivatives thereof, or pharmaceutically acceptable salts thereof” (University of Seoul Industry Cooperation Foundation, priority 2017, dated 2019).
